# According to patent US20110065632A1, “PHARMACEUTICAL COMPOSITIONS OF SOMATOSTATIN-DOPAMINE CONJUGATES” (priority 2008, published 2011):
# Like-named read-outs stand apart in the source and are kept apart here. Numbered stars: 1 amine (or outer) side, 2 acyl side, 3 side chain; on linkers, the order of the positions; unused ones are H or OH. Bridge positions count the residues as written; N and C are the ends. Square brackets hold non-standard residues; d marks the D form. Peptide text beside a SMILES is read from it. * marks the point of attachment. X1 = CCCN1C[C@H](CSCC(=O)*)C[C@@H]2c3cccc4[nH]cc(c34)C[C@H]21; Pipz(1-CH2CO,4-CH2CH2NH) = O=C(CN1CCN(CCN[*:1])CC1)[*:2]; Dopa = N[C@@H](Cc1ccc(O)c(O)c1)C(=O)O; Abu = CC[C@H](N)C(=O)O
# Key:
# hsst2 = target: T1, hsst2 (Homo sapiens, UniProt P30874); assay: Somatostatin receptor radioligand binding assay, hsst2; conditions: CHO-K1 membranes, [125I]MK-678
# T1 construct: expressed in transfected cells
# Experimental: (§1) Specificity and selectivity of the somatostatin analogues used to synthesize the somatostatin-dopamine chimers were determined by a radioligand binding assay on CHO-K1 cells stably transfected with each of the SSTR subtypes, as follows. Somatostatin analogs are also described in U.S. Patent Application Publication No. 02210006790. The complete coding sequences of genomic fragments of the SSTR 1 (e.g., Genbank accession No. M81829), SSTR 2 (e.g., Genbank accession No. M81830), SSTR 3 (e.g., Genbank accession No. L07062), and SSTR 4 (e.g., Genbank accession No. AL049651) genes and a cDNA clone for SSTR 5 (e.g., Genbank accession No. D16827) was subcloned into the mammalian expression vector pCMV (Life Technologies, Milano, Italy). Other SSTR sequences are known to the skilled artisan. Clonal cell lines stably expressing SSTR's 1-5 were obtained by transfection into CHO-K1 cells (ATCC, Manassas, Va., USA) using the calcium phosphate co-precipitation method (Davis L, et al., 1994 In: Basic methods in Molecular Biology, 2nd edition, Appleton & Lange, Norwalk, Conn., USA: 611-646). The plasmid pRSV-neo (ATCC) was included as a selectable marker. Clonal cell lines were selected in RPMI 1640 media containing 0.5 mg/mL of G418 (Life Technologies, Milano, Italy), ring cloned, and expanded into culture.
# (§2) Membranes for in vitro receptor binding assays were obtained by homogenizing the CHO-K1 cells expressing the SSTR's subtypes in ice-cold 50 mM Tris-HCl and centrifuging twice at 39,000 g (10 min), with an intermediate resuspension in fresh buffer. The final pellets were resuspended in 10 mM Tris-HCl for assay.
# (§3) For the SSTR 2 assay, 0.05 nM [^125I]MK-678 was employed as the radioligand and the incubation time was 90 minutes at 25° C. The incubations were terminated by rapid filtration through GF/C glass microfiber filters (Whatman Co.) (pre-soaked in 0.3% polyethylenimine) using a BRANDEL filtration manifold. Each tube and filter was washed three times with 5 mL aliquots of ice-cold buffer. Specific binding was defined as the total radioligand bound minus that bound in the presence of 1000 nM SS-14 for SSTR 1, 3, 4, and 5, or 1000 nM MK-678 for SSTR2.
# hsst3 = target: T2, hsst3 (Homo sapiens, UniProt P32745); assay: Somatostatin receptor radioligand binding assay, hsst3
# T2 construct: expressed in transfected cells
# Experimental: as §1, §2
# (§4) For the SSTR 1, 3, 4, and 5 assays, aliquots of the membrane preparations were incubated 90 minutes at 25° C. with 0.05 nM [^125I-Tyr11]SS-14 in 50 mM HEPES (pH 7.4) containing 10 mg/mL BSA, 5 mM MgCl2, 200 KIU/mL Trasylol, 0.02 mg/mL bacitracin, and 0.02 mg/mL phenylmethylsuphonyl fluoride. The final assay volume was 0.3 mL.
# as §3
# (§5) Using the discussed assays, the inhibition constants (Ki) for the five human somatostatin receptors (hSSTR1-hSSTR5) and the dopamine-2 receptor (hUTII and hDA2) were measured for the exemplified somatostatin-dopamine conjugates, as follows: […]
# hsst5 = target: T3, hsst5 (Homo sapiens, UniProt P35346); assay: Somatostatin receptor radioligand binding assay, hsst5; conditions: CHO-K1 membranes, [125I-Tyr11]SS-14
# T3 construct: expressed in transfected cells
# Experimental: as §1, §2, §4, §3
# hUTII = target: T4, hUTII (Homo sapiens, UniProt Q9UKP6); assay: hUTII inhibition constant; assay type: binding
# T4 sequence (Q9UKP6 1-389): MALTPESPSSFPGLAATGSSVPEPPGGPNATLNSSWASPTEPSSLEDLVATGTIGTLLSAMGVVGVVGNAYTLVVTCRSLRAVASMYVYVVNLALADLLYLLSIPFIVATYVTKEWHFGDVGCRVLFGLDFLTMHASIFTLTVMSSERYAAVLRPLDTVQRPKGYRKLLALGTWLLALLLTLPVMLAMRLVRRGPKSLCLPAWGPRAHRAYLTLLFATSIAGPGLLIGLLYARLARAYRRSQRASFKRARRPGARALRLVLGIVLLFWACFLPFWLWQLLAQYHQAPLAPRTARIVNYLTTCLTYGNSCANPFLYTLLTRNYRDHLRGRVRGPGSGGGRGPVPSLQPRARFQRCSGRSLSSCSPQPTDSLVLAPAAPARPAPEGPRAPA
# Experimental: as §5
# hDA2 = assay: Dopamine-2 receptor radioligand binding assay; set-up: species or system human; conditions: [3H]spiperone
# Experimental: Specificity and selectivity for the dopamine-2 receptor of the dopamine analogues used to synthesize the somatostatin-dopamine chimers may be determined by a radioligand binding assay as follows.
# Crude membranes were prepared by homogenization of frozen rat corpus striatum (Zivic Laboratories, Pittsburgh, Pa., USA) in 20 mL of ice-cold 50 mM Tris-HCl with a Brinkman Polytron cell disrupter (setting 6, 15 sec). Buffer was added to obtain a final volume of 40 mL, and the homogenate was centrifuged in a Sorval SS-34 rotor at 39,000 g for 10 minutes at 0-4° C. The resulting supernatant was decanted and discarded. The pellet was rehomogenized in ice-cold buffer, pre-incubated at 37° C. for 10 min, diluted, and centrifuged as before. The final pellet was resuspended in buffer and held on ice for the receptor binding assay.
# For assay, aliquots of the washed membrane preparations and test compounds were incubated for 15 minutes (37° C.) with 0.25 nM [^3HI]spiperone (16.5 Ci.mmol, New England Nuclear, Boston, Mass., USA) in 50 mM Tris HCl, 120 mM NaCl, 5 mM KCl, 2 mM CaCl2, 1 mM MgCl2. The final assay volume was 1.0 mL. The incubations were terminated by rapid filtration through GF/B glass fibre filters using a Brandel filtration manifold. Each tube and filter was then washed three times with 5-mL aliquots of ice-cold buffer. Specific binding was defined as the total radioligand bound minus that bound in the presence of 1000 nM (+) butaclamol.
# as §5
# [1] = CHO-K1 membranes, [125I-Tyr11]SS-14, read-out: hsst3 Ki
# T2 sequence (P32745 whole entry): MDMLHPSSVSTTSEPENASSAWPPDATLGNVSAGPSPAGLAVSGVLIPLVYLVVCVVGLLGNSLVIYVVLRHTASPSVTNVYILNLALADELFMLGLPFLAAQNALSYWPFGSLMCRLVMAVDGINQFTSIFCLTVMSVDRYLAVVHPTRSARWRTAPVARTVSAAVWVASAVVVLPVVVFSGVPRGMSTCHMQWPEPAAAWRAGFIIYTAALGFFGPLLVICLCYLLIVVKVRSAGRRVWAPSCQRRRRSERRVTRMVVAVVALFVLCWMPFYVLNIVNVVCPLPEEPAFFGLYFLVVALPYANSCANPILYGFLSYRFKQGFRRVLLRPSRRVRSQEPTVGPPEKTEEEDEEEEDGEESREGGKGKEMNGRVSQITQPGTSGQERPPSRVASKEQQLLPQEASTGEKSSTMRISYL
# T1 sequence (P30874 whole entry): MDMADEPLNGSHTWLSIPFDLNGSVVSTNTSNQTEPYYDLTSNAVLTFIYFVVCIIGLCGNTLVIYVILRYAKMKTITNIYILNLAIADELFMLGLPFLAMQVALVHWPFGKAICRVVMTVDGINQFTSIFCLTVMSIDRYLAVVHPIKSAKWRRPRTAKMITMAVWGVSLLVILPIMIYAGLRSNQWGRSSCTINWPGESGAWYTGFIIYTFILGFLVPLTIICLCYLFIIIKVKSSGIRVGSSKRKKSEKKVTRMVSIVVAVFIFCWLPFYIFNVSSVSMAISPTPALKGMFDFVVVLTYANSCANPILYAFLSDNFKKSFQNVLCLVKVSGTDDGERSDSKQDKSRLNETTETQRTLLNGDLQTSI
# T3 sequence (P35346 whole entry): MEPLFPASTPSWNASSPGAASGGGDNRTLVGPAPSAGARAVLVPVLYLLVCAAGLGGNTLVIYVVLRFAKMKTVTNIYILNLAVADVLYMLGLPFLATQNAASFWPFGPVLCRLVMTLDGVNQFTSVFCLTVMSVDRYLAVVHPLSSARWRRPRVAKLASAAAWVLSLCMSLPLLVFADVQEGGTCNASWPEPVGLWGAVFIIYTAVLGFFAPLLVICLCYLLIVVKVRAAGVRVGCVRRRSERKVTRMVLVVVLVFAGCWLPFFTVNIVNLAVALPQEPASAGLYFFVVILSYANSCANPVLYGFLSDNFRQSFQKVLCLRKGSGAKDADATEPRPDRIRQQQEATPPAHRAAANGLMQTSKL
Ki (hsst2; read-out: hsst2 Ki),Ki (hsst3; [1]),Ki (hsst5; read-out: hsst5 Ki),Ki (hUTII; read-out: hUTII Ki),Ki (hDA2),SMILES,Ki (hsst3),Ki (hsst2; hsst2 Ki),Ki (hsst5; hsst5 Ki),Ki (hUTII; hUTII Ki)
0.18 nM,106 nM,54 nM,496 nM,17.6 nM,CCCN1C[C@H](CSCC(=O)NCCCC[C@H](NC(=O)CSC[C@@H]2C[C@@H]3c4cccc5[nH]cc(c45)C[C@H]3N(CCC)C2)C(=O)N[C@H](Cc2ccccc2)C(=O)N[C@H]2CSSC[C@@H](C(=O)N[C@H](C(N)=O)[C@@H](C)O)NC(=O)[C@H](CC)NC(=O)[C@H](CCCCN)NC(=O)[C@@H](Cc3c[nH]c4ccccc34)NC(=O)[C@H](Cc3ccc(O)cc3)NC2=O)C[C@@H]2c3cccc4[nH]cc(c34)C[C@H]21 [Example 17],,,,
,,,,217 nM,CC(C)[C@@H]1NC(=O)[C@H](CCCCN)NC(=O)[C@@H](Cc2c[nH]c3ccccc23)NC(=O)[C@H](Cc2ccc(O)c(I)c2)NC(=O)[C@@H](NC(=O)[C@@H](Cc2ccccc2)NC(=O)COCCOCCNC(=O)CSC[C@@H]2C[C@@H]3c4cccc5[nH]cc(c45)C[C@H]3N(C)C2)CSSC[C@@H](C(=O)N[C@H](C(N)=O)[C@@H](C)O)NC1=O [Example 41],,,,
1.26 nM,374 nM,,421 nM,126 nM,CCCN1C[C@H](CSCC(=O)NCCN2CCN(CC(=O)NCCN3CCN(CC(=O)N[C@H](Cc4ccccc4)C(=O)N[C@H]4CSSC[C@@H](C(=O)N[C@H](C(N)=O)[C@@H](C)O)NC(=O)[C@H](C(C)C)NC(=O)[C@H](CCCCN)NC(=O)[C@@H](Cc5c[nH]c6ccccc56)NC(=O)[C@H](Cc5ccc(O)c(I)c5)NC4=O)CC3)CC2)C[C@@H]2c3cccc4[nH]cc(c34)C[C@H]21 [Example 37],,,,
0.36 nM,167 nM,32 nM,1000 nM,3000 nM,CC[C@@H]1NC(=O)[C@H](CCCCN)NC(=O)[C@@H](Cc2c[nH]c3ccccc23)NC(=O)[C@H](Cc2ccc(O)cc2)NC(=O)[C@@H](NC(=O)[C@@H](Cc2ccccc2)NC(=O)[C@H](CCCCNC(=O)[C@@H](N)Cc2ccc(O)c(O)c2)NC(=O)[C@@H](N)Cc2ccc(O)c(O)c2)CSSC[C@@H](C(=O)N[C@H](C(N)=O)[C@@H](C)O)NC1=O [Example 18] (H-[Dopa]K(Dopa)[dF]CY[dW]K[Abu]CT-NH2; disulfide 4-9),,,,
1.67 nM,145 nM,53.5 nM,3090 nM,328 nM,"CCCN1C[C@H](CSCC(=O)NCCN2CCN(CC(=O)NCCN3CCN(CC(=O)N[C@H](Cc4ccccc4)C(=O)N[C@H]4CSSC[C@@H](C(=O)N[C@H](C(N)=O)[C@@H](C)O)NC(=O)[C@H](CC)NC(=O)[C@H](CCCCN)NC(=O)[C@@H](Cc5c[nH]c6ccccc56)NC(=O)[C@H](Cc5ccc(O)cc5)NC4=O)CC3)CC2)C[C@@H]2c3cccc4[nH]cc(c34)C[C@H]21 [Example 36] (X1-[Pipz(1-CH2CO,4-CH2CH2NH)][Pipz(1-CH2CO,4-CH2CH2NH)][dF]CY[dW]K[Abu]CT-NH2; disulfide 4-9)",,,,
,,6.29 nM,,18.3 nM,CCCN1C[C@H](CSCC(=O)NCCCC[C@@H](NC(=O)CSC[C@@H]2C[C@@H]3c4cccc5[nH]cc(c45)C[C@H]3N(CCC)C2)C(=O)N[C@H](Cc2ccccc2)C(=O)N[C@H]2CSSC[C@@H](C(=O)N[C@H](C(N)=O)[C@@H](C)O)NC(=O)[C@H]([C@@H](C)O)NC(=O)[C@H](CCCCN)NC(=O)[C@@H](Cc3c[nH]c4ccccc34)NC(=O)[C@H](Cc3ccc(O)c(I)c3)NC2=O)C[C@@H]2c3cccc4[nH]cc(c34)C[C@H]21 [Example 15],,,,
,,,,,CC[C@@H]1NC(=O)[C@H](CCCCN)NC(=O)[C@@H](Cc2c[nH]c3ccccc23)NC(=O)[C@H](Cc2ccc(O)cc2)NC(=O)[C@@H](NC(=O)[C@@H](Cc2ccccc2)NC(=O)CN(C)C(=O)N[C@H]2C[C@@H]3c4cccc5[nH]cc(c45)C[C@H]3N(C)C2)CSSC[C@@H](C(=O)N[C@H](C(N)=O)[C@@H](C)O)NC1=O [Example 27],140 nM,0.02 nM,22.8 nM,1280 nM
0.27 nM,109 nM,13.6 nM,134 nM,55.8 nM,CCCN1C[C@H](CSCC(=O)N[C@@H](CCCCN)C(=O)N[C@H](Cc2ccc(O)cc2)C(=O)N[C@H](Cc2ccc(O)cc2)C(=O)N[C@H]2CSSC[C@@H](C(=O)N[C@H](C(N)=O)[C@@H](C)O)NC(=O)[C@H](CC)NC(=O)[C@H](CCCCN)NC(=O)[C@@H](Cc3c[nH]c4ccccc34)NC(=O)[C@H](Cc3ccc(O)cc3)NC2=O)C[C@@H]2c3cccc4[nH]cc(c34)C[C@H]21 [Example 35] (X1-K[dY][dY]CY[dW]K[Abu]CT-NH2; disulfide 4-9),,,,
0.14 nM,,,,226 nM,CCCN1C[C@H](CNC(=O)CCCC(=O)N[C@H](Cc2ccccc2)C(=O)N[C@H]2CSSC[C@@H](C(=O)N[C@H](C(N)=O)[C@@H](C)O)NC(=O)[C@H](CC)NC(=O)[C@H](CCCCN)NC(=O)[C@@H](Cc3c[nH]c4ccccc34)NC(=O)[C@H](Cc3ccc(O)cc3)NC2=O)C[C@@H]2c3cccc4[nH]cc(c34)C[C@H]21 [Example 29],,,,
0.41 nM,146 nM,19.7 nM,2250 nM,3000 nM,CC[C@@H]1NC(=O)[C@H](CCCCN)NC(=O)[C@@H](Cc2c[nH]c3ccccc23)NC(=O)[C@H](Cc2ccc(O)cc2)NC(=O)[C@@H](NC(=O)[C@@H](Cc2ccccc2)NC(=O)[C@@H](N)Cc2ccc(O)c(O)c2)CSSC[C@@H](C(=O)N[C@H](C(N)=O)[C@@H](C)O)NC1=O [Example 19],,,,

SMILES,Ki (hsst2; read-out: hsst2 Ki),Ki (hsst3; [1]),Ki (hsst5; read-out: hsst5 Ki),Ki (hUTII; read-out: hUTII Ki),Ki (hDA2),Ki (hsst3),Ki (hsst2; hsst2 Ki),Ki (hsst5; hsst5 Ki),Ki (hUTII; hUTII Ki)
CC(C)[C@@H]1NC(=O)[C@H](CCCCN)NC(=O)[C@@H](Cc2c[nH]c3ccccc23)NC(=O)[C@H](Cc2ccc(O)c(I)c2)NC(=O)[C@@H](NC(=O)[C@@H](Cc2ccccc2)NC(=O)CN2CCN(CCNC(=O)CN3CCN(CCNC(=O)CSC[C@@H]4C[C@@H]5c6cccc7[nH]cc(c67)C[C@H]5N(C)C4)CC3)CC2)CSSC[C@@H](C(=O)N[C@H](C(N)=O)[C@@H](C)O)NC1=O [Example 39],0.42 nM,,,241 nM,310 nM,136 nM,,,
CC[C@@H]1NC(=O)[C@H](CCCCN)NC(=O)[C@@H](Cc2c[nH]c3ccccc23)NC(=O)[C@H](Cc2ccc(O)cc2)NC(=O)[C@@H](NC(=O)[C@@H](Cc2ccccc2)NC(=O)CN(C)C(=O)N[C@H]2C[C@@H]3c4cccc5[nH]cc(c45)C[C@H]3N(C)C2)CSSC[C@@H](C(=O)N[C@H](C(N)=O)[C@@H](C)O)NC1=O [Example 20],,,,,95.2 nM,,,,
